Like-named read-outs stand apart in the source and are kept apart here.
Experiments:
human CB1 receptors = human CB1 receptors (Homo sapiens (Human), UniProt P21554); test: functional cAMP assay, CB1; assay type: cell-based
Summary of the method: (§1)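 CHO cells expressing human CB1 or CB2 were preincubated 30 min at 30 °C in Krebs Ringer bicarbonate buffer with 1 mM IBMX, then exposed to compound for 30 min at 30 °C. cAMP was measured by TR-FRET (cAMP-Nano-TRF) against a 10 μM–0.13 nM cAMP standard curve, and EC50 values were derived.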

human CB2 receptors = human CB2 receptors (Homo sapiens (Human), UniProt P34972); test: functional cAMP assay, CB2; assay type: cell-based
Summary of the method: as §1

[1] = functional cAMP assay, CHO cells expressing human CB1, read-out: human CB1 EC50
[2] = functional cAMP assay, CHO cells expressing human CB2, read-out: human CB2 EC50

human CB1 receptors, sequence (P21554 whole entry): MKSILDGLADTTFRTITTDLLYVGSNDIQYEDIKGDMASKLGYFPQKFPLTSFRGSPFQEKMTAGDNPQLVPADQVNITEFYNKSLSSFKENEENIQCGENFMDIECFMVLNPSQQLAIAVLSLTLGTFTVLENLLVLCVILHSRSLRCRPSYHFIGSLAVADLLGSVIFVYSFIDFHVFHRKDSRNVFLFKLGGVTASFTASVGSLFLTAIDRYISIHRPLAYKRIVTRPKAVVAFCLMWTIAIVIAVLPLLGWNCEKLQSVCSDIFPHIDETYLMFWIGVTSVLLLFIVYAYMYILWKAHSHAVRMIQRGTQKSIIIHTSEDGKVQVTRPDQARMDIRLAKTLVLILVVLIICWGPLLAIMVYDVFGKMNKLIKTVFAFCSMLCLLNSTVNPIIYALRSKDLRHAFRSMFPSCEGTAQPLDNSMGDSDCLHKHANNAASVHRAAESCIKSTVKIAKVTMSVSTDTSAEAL
human CB2 receptors, sequence (P34972 whole entry): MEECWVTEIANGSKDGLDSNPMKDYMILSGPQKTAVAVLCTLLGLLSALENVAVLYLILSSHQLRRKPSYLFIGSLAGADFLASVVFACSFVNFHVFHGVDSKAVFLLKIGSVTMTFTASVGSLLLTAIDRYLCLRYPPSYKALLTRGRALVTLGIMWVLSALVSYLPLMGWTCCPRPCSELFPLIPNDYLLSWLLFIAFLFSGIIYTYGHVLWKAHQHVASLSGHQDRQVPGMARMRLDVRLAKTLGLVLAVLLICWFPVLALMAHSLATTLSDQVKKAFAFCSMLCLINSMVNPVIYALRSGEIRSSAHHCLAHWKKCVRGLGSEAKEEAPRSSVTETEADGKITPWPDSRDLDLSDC

Compound | EC50 (human CB1 receptors; [1]) [nM] | EC50 (human CB2 receptors; [2]) [nM] | EC50 (human CB1 receptors) [nM] | EC50 (human CB2 receptors) [nM]
CCC(C)(CO)NC(=O)c1cnc(C2CC2)c(OCC2CC2)n1 (stereo not drawn) [Example 13, 5-Cyclopropyl-6-cyclopropylmethoxy-pyrazine-2-carboxylic acid (1-hydroxymethyl-1-methyl-propyl)-amide] | > 10000 | 63.4 | – | –
Cc1nc([C@@H](NC(=O)c2cnc(N3CC(F)(F)C3)c(OCC3CC3)n2)C2CC2)no1 (stereo in doubt) [Example 42, 6-Cyclopropylmethoxy-5-(3,3-difluoro-azetidin-1-yl)-pyrazine-2-carboxylic acid [(SR)-cyclopropyl-(5-methyl-[1,2,4]oxadiazol-3-yl)-methyl]-amide] | – | – | > 10000 | 28
Cc1nc([C@@H](NC(=O)c2cnc(C3CC3)c(OCC3CC3)n2)C2CC2)no1 (stereo in doubt) [Example 40, 5-Cyclopropyl-6-cyclopropylmethoxy-pyrazine-2-carboxylic acid [(SR)-cyclopropyl-(5-methyl-[1,2,4]oxadiazol-3-yl)-methyl]-amide] | – | – | > 10000 | 30.8
CC(C)C[C@H](NC(=O)c1cnc(C2CC2)c(OCC2CC2)n1)C(=O)N(C)C [Example 27, 5-Cyclopropyl-6-cyclopropylmethoxy-pyrazine-2-carboxylic acid ((S)-1-dimethylcarbamoyl-3-methyl-butyl)-amide] | > 10000 | 2.7 | – | –
CC(C)C(NC(=O)c1cnc(N2CC(F)(F)C2)c(OCC2CC2)n1)C(N)=O (stereo not drawn) [Example 88, 6-Cyclopropylmethoxy-5-(3,3-difluoro-azetidin-1-yl)-pyrazine-2-carboxylic acid (1-carbamoyl-2-methyl-propyl)-amide] | > 10000 | 79.1 | – | –
CC(C)(CC(N)=O)NC(=O)c1cnc(C2CC2)c(OCC2CC2)n1 [Example 106] | > 10000 | 43.2 | – | –
Cc1csc(C(C)(C)NC(=O)c2cnc(N3CC(F)(F)C3)c(OCC3CC3)n2)n1 [Example 55, 6-Cyclopropylmethoxy-5-(3,3-difluoro-azetidin-1-yl)-pyrazine-2-carboxylic acid [1-methyl-1-(4-methyl-thiazol-2-yl)-ethyl]-amide] | > 10000 | 22 | – | –
CC(C)C[C@H](NC(=O)c1cnc(N2CC(F)(F)C2)c(OCC2CC2)n1)C(=O)N(C)C [Example 34, 6-Cyclopropylmethoxy-5-(3,3-difluoro-azetidin-1-yl)-pyrazine-2-carboxylic acid ((S)-1-dimethylcarbamoyl-3-methyl-butyl)-amide] | > 10000 | 13.6 | – | –
Cc1nc(C(C)(NC(=O)c2cnc(C3CC3)c(OCC3CC3)n2)C2CC2)no1 (stereo not drawn) [Example 62, 5-Cyclopropyl-6-cyclopropylmethoxy-pyrazine-2-carboxylic acid [1-cyclopropyl-1-(5-methyl-[1,2,4]oxadiazol-3-yl)-ethyl]-amide] | 1650 | 22.8 | – | –
NC(=O)[C@H](CC1CC1)NC(=O)c1cnc(C2CC2)c(OCC2CC2)n1 [Example 28, 5-Cyclopropyl-6-cyclopropylmethoxy-pyrazine-2-carboxylic acid ((S)-1-carbamoyl-2-cyclopropyl-ethyl)-amide] | > 10000 | 43.5 | – | –
NC(=O)CC1(NC(=O)c2cnc(C3CC3)c(OCC3CC3)n2)COC1 [Example 84, 5-Cyclopropyl-6-cyclopropylmethoxy-pyrazine-2-carboxylic acid (3-carbamoylmethyl-oxetan-3-yl)-amide] | > 10000 | 14.6 | – | –
NC(=O)C1(NC(=O)c2cnc(N3CC(F)(F)C3)c(OCC3CC3)n2)CCCCC1 [Example 89, 6-Cyclopropylmethoxy-5-(3,3-difluoro-azetidin-1-yl)-pyrazine-2-carboxylic acid (1-carbamoyl-cyclohexyl)-amide] | > 10000 | 70.6 | – | –
CC(C)C(NC(=O)c1cnc(C2CC2)c(OCC2CC2)n1)C(=O)N(C)C (stereo not drawn) [Example 92, 5-Cyclopropyl-6-cyclopropylmethoxy-pyrazine-2-carboxylic acid (1-dimethylcarbamoyl-2-methyl-propyl)-amide] | > 10000 | 8.6 | – | –
COC(=O)[C@@H](NC(=O)c1cnc(C2CC2)c(OCC2CC2)n1)C(C)(C)C [Example 23, (S)-2-[(5-Cyclopropyl-6-cyclopropylmethoxy-pyrazine-2-carbonyl)-amino]-3,3-dimethyl-butyric acid methyl ester] | 157 | 1.7 | – | –
CC(C)(CCO)NC(=O)c1cnc(C2CC2)c(OCC2CC2)n1 [Example 10, 5-Cyclopropyl-6-cyclopropylmethoxy-pyrazine-2-carboxylic acid (3-hydroxy-1,1-dimethyl-propyl)-amide] | > 10000 | 257 | – | –
Cc1nc(C(C)(CC2CC2)NC(=O)c2cnc(N3CC(F)(F)C3)c(OCC3CC3)n2)no1 (stereo not drawn) [Example 60, 6-Cyclopropylmethoxy-5-(3,3-difluoro-azetidin-1-yl)-pyrazine-2-carboxylic acid [2-cyclopropyl-1-methyl-1-(5-methyl-[1,2,4]oxadiazol-3-yl)-ethyl]-amide] | > 10000 | 14.6 | – | –
O=C(NC(CO)CC1CCC1)c1cnc(N2CC(F)(F)C2)c(OCC2CC2)n1 (stereo not drawn) [Example 100, 6-Cyclopropylmethoxy-5-(3,3-difluoro-azetidin-1-yl)-pyrazine-2-carboxylic acid (1-cyclobutylmethyl-2-hydroxy-ethyl)-amide] | > 10000 | 7.3 | – | –
O=C(NN1CCCCC1)c1cnc(C2CC2)c(-c2cccc(Cl)c2)n1 [Example 7, 6-(3-Chloro-phenyl)-5-cyclopropyl-pyrazine-2-carboxylic acid piperidin-1-ylamide] | > 10000 | 255 | – | –
COC(=O)[C@H](CC1CC1)NC(=O)c1cnc(N2CC(F)(F)C2)c(OCC2CC2)n1 [Example 36, (S)-3-Cyclopropyl-2-{[6-cyclopropylmethoxy-5-(3,3-difluoro-azetidin-1-yl)-pyrazine-2-carbonyl]-amino}-propionic acid methyl ester] | > 10000 | 9.6 | – | –
NC(=O)[C@H](Cc1ccccc1)NC(=O)c1cnc(N2CC(F)(F)C2)c(OCC2CC2)n1 [Example 38, 6-Cyclopropylmethoxy-5-(3,3-difluoro-azetidin-1-yl)-pyrazine-2-carboxylic acid ((S)-1-carbamoyl-2-phenyl-ethyl)-amide] | > 10000 | 44.4 | – | –
CN(C)C(=O)[C@H](CC1CC1)NC(=O)c1cnc(N2CC(F)(F)C2)c(OCC2CC2)n1 [Example 32, 6-Cyclopropylmethoxy-5-(3,3-difluoro-azetidin-1-yl)-pyrazine-2-carboxylic acid ((S)-2-cyclopropyl-1-dimethylcarbamoyl-ethyl)-amide] | > 10000 | 59.6 | – | –
CC(C)(NC(=O)c1cnc(N2CC(F)(F)C2)c(OCC2CC2)n1)c1noc(N)n1 [Example 58, 6-Cyclopropylmethoxy-5-(3,3-difluoro-azetidin-1-yl)-pyrazine-2-carboxylic acid [1-(5-amino-[1,2,4]oxadiazol-3-yl)-1-methyl-ethyl]-amide] | > 10000 | 178 | – | –
CNC(=O)C(CC1CCC1)NC(=O)c1cnc(C2CC2)c(OCC2CC2)n1 (stereo not drawn) [Example 98, 5-Cyclopropyl-6-cyclopropylmethoxy-pyrazine-2-carboxylic acid (2-cyclobutyl-1-methylcarbamoyl-ethyl)-amide] | > 10000 | 59.3 | – | –
Cc1nc(C(C)(C)NC(=O)c2cnc(C3CC3)c(-c3cccc(Cl)c3)n2)no1 [Example 1, 6-(3-Chloro-phenyl)-5-cyclopropyl-pyrazine-2-carboxylic acid [1-methyl-1-(5-methyl-[1,2,4]oxadiazol-3-yl)-ethyl]amide] | 1150 | 88.1 | – | –
O=C(N[C@H](c1ccccn1)C(F)(F)F)c1cnc(N2CC(F)(F)C2)c(OCC2CC2)n1 [Example 47, 6-Cyclopropylmethoxy-5-(3,3-difluoro-azetidin-1-yl)-pyrazine-2-carboxylic acid ((R)-2,2,2-trifluoro-1-pyridin-2-yl-ethyl)-amide] | > 10000 | 72.9 | – | –
CC(C)[C@@](C)(CO)NC(=O)c1cnc(C2CC2)c(OCC2CC2)n1 [Example 52, 5-Cyclopropyl-6-cyclopropylmethoxy-pyrazine-2-carboxylic acid ((S)-1-hydroxymethyl-1,2-dimethyl-propyl)-amide] | > 10000 | 36.9 | – | –
C[C@@](NC(=O)c1cnc(N2CC(F)(F)C2)c(OCC2CC2)n1)(C(N)=O)c1ccccc1 [Example 59, 6-Cyclopropylmethoxy-5-(3,3-difluoro-azetidin-1-yl)-pyrazine-2-carboxylic acid ((S)-1-carbamoyl-1-phenyl-ethyl)-amide] | > 10000 | 49.2 | – | –
